Patent US9426996B2, “Use of benzoxaboroles as volatile antimicrobial agents on meats, plants, or plant parts” (AgroFresh Inc., priority 2013, dated 2016)

Experiments:
Escherichia coli = assay: in vivo volatile bioassay on fresh beef
Protocol: (§1) In order to assess the in vivo activity of volatile antimicrobial Compound A, a volatile bioassay is developed to evaluate the control of Escherichia coli and Salmonella enterica on fresh beef. The beef is washed to remove any natural inoculum by rinsing in warm water for 2 minutes. Two strips, single layer, are placed in a sterile 10.8-cup SnapWare airtight container (Model #109842).
(§2) Each strip is inoculated on the surface by placing 20 μL of either E. coli or S. enterica cell suspensions that are adjusted to an optical density of 0.35 (600 nm), and further diluted 1/10. For determination of efficacy, Compound A powder is introduced into the container with a sublimation device (copper tube heated to 200° C. with fan flow at 0.5 liters per minute (L/min)) at a rate required to achieve a final headspace concentration of 100 mg/L. The containers and their contents are then incubated for 2 days at 21° C. After treatment, the beef is washed, and the wash is collected, serially diluted, plated on nutrient agar, and then incubated for an additional 24 hours at 37° C. Bacterial colonies are counted and expressed as colony forming units (CFU/mL), with the log reduction calculated relative to the control.

Salmonella enterica = assay: in vivo volatile bioassay on fresh beef; conditions: S. enterica from beef; 100 mg/L headspace; 2 days at 21° C.
Protocol: as §1, §2

Alternaria alternata [1] = assay: combination treatment with 1-MCP on broccoli; format: in vivo; parameters: scale not given here; conditions: 21° C.
Protocol: To evaluate a combination treatment of Compound A with 1-methylcyclopropene (1-MCP), an in vivo experiment is performed on broccoli.
Broccoli flowers are inoculated with 1×10^6 spores/mL of Alternaria alternata and then placed in a 117 L Rubbermaid storage box (Cat #2244) with two small fans placed in opposite ends of the container. A 500 ppb v/v 1-MCP treatment is applied (AgroFresh, Springhouse, Pa.) for 24 hours at 1° C. After completion of the 1-MCP treatment, broccoli florets are removed and placed in a 10.8-cup SnapWare airtight container (Model #109842). Compound A powder is applied in a dose dependent manner to achieve a final headspace concentration of 2 or 0.4 mg/L with a sublimation device (copper tube heated to 200° C. with fan flow at 0.5 L/min), with the end of the tube penetrating through a ½ inch side port in the container that is sealed immediately after the application. The florets are incubated for five days at 10° C. or three days at 21° C., then evaluated for an additional five days at 21° C. for disease incidence and severity.

Botrytis cinerea = assay: in vivo volatile bioassay using strawberry, grape and blueberry
Protocol: In order to assess the in vivo activity of volatile antimicrobial Compound A in fruit, a volatile bioassay is developed using strawberry, grape and blueberry. Eight strawberries, 16 grapes or 30 blueberries (per replicate) are placed in a commercially relevant sized PET clamshell, with the stem end facing up for blueberries and grapes, and downwards for strawberries. A fresh wound is inoculated with 20 μL (strawberry and grape) or 10 μL (blueberry) of 1×10^6 per mL Botrytis cinerea spore suspension. The clamshells are placed inside a 10.8-cup SnapWare airtight container (Model #109842). A 42.5 mm Whatman #1 filter disk (Cat. No. 1001-042) is placed on a watch glass. Compound A is dissolved in acetone and added to the disks in a dose dependent manner to produce a final headspace concentration of 0.4, 2, or 10 mg/L. The acetone is permitted to evaporate for five minutes. The containers are then closed with lids and placed for three days at 21° C. After storage, fruits are evaluated for incidence and severity (0 to 4) of disease for an additional three days at 21° C., with results summarized in Table 17.

Alternaria alternata [2] = assay: combination treatment with 1-MCP on broccoli; format: in vivo; parameters: scale not given here; conditions: 11 C.
[3] = Blueberry, 0.4 mg/L, evaluation day 0
[4] = Blueberry, 0.4 mg/L, evaluation day 1
[5] = Blueberry, 0.4 mg/L, evaluation day 2
[6] = Blueberry, 0.4 mg/L, evaluation day 3
[7] = Blueberry, 2 mg/L, evaluation day 0
[8] = Blueberry, 2 mg/L, evaluation day 1
[9] = Blueberry, 2 mg/L, evaluation day 2
[10] = Blueberry, 2 mg/L, evaluation day 3
[11] = Blueberry, 10 mg/L, evaluation day 0
[12] = Blueberry, 10 mg/L, evaluation day 1
[13] = Blueberry, 10 mg/L, evaluation day 2
[14] = Blueberry, 10 mg/L, evaluation day 3
[15] = Grape, 0.4 mg/L, evaluation day 0
[16] = Grape, 0.4 mg/L, evaluation day 1
[17] = Grape, 0.4 mg/L, evaluation day 2
[18] = Grape, 0.4 mg/L, evaluation day 3
[19] = Grape, 2 mg/L, evaluation day 2
[20] = Grape, 2 mg/L, evaluation day 3
[21] = Grape, 10 mg/L, evaluation day 2
[22] = Grape, 10 mg/L, evaluation day 3
[23] = Strawberry, 0.4 mg/L, evaluation day 0
[24] = Strawberry, 0.4 mg/L, evaluation day 1
[25] = Strawberry, 0.4 mg/L, evaluation day 2
[26] = Strawberry, 0.4 mg/L, evaluation day 3
[27] = Strawberry, 2 mg/L, evaluation day 0
[28] = Strawberry, 2 mg/L, evaluation day 1
[29] = Strawberry, 2 mg/L, evaluation day 2
[30] = Strawberry, 2 mg/L, evaluation day 3
[31] = Strawberry, 10 mg/L, evaluation day 0
[32] = Strawberry, 10 mg/L, evaluation day 1
[33] = Strawberry, 10 mg/L, evaluation day 2
[34] = Strawberry, 10 mg/L, evaluation day 3

OB1OCc2cc(F)ccc21 [Compound A] was tested, and the “Log CFU/mL” value (Escherichia coli; E. coli from beef, 100 mg/L headspace, 2 days at 21° C.) was 5.09 Log CFU/mL, the Log reduction (Escherichia coli; E. coli from beef, 100 mg/L, relative to the control) was 3.17 log and the “reduction of E. coli in percent” value (Escherichia coli; beef, 100 mg/L, relative to the control) was greater than 99.9%. For the same compound, the “Log CFU/mL” value (Salmonella enterica) was 4.95 Log CFU/mL, the “Color Score” value (Alternaria alternata [1]; 0.4 mg/L) was 1.32 and the Severity (Alternaria alternata [1]; 0.4 mg/L) was 0.29. The “Color Score” value (Alternaria alternata [1]; 2 mg/L) was 1.89, the Severity (Alternaria alternata [1]; 2 mg/L) was 0.07 and the “Incidence (%)” value (Botrytis cinerea; [3]) was 21%. The “Severity (0-4)” value (Botrytis cinerea; [3]) was 0.1, the “Incidence (%)” value (Botrytis cinerea; [4]) was 21% and the “Severity (0-4)” value (Botrytis cinerea; [4]) was 0.2. The “Incidence (%)” value (Botrytis cinerea; [5]) was 40.3%, the “Severity (0-4)” value (Botrytis cinerea; [5]) was 0.5 and the “Incidence (%)” value (Botrytis cinerea; [6]) was 62.9%. For the same compound, the “Severity (0-4)” value (Botrytis cinerea; [6]) was 1, the “Incidence (%)” value (Botrytis cinerea; [7]) was 9.7% and the “Severity (0-4)” value (Botrytis cinerea; [7]) was 0. For the same compound, the “Incidence (%)” value (Botrytis cinerea; [8]) was 9.7%, the “Severity (0-4)” value (Botrytis cinerea; [8]) was 0 and the “Incidence (%)” value (Botrytis cinerea; [9]) was 9.7%. For the same compound, the “Severity (0-4)” value (Botrytis cinerea; [9]) was 0.1, the “Incidence (%)” value (Botrytis cinerea; [10]) was 40.3% and the “Severity (0-4)” value (Botrytis cinerea; [10]) was 0.6. The “Incidence (%)” value (Botrytis cinerea; [11]) was 12.9%, the “Severity (0-4)” value (Botrytis cinerea; [11]) was 0.1 and the “Incidence (%)” value (Botrytis cinerea; [12]) was 12.9%. For the same compound, the “Severity (0-4)” value (Botrytis cinerea; [12]) was 0.1, the “Incidence (%)” value (Botrytis cinerea; [13]) was 12.9% and the “Severity (0-4)” value (Botrytis cinerea; [13]) was 0.2. The “Incidence (%)” value (Botrytis cinerea; [14]) was 41.9%, the “Severity (0-4)” value (Botrytis cinerea; [14]) was 0.6 and the “Incidence (%)” value (Botrytis cinerea; [15]) was 3.1%. The “Severity (0-4)” value (Botrytis cinerea; [15]) was 0, the “Incidence (%)” value (Botrytis cinerea; [16]) was 3.1% and the “Severity (0-4)” value (Botrytis cinerea; [16]) was 0. The “Incidence (%)” value (Botrytis cinerea; [17]) was 15.6%, the “Severity (0-4)” value (Botrytis cinerea; [17]) was 0.2 and the “Incidence (%)” value (Botrytis cinerea; [18]) was 62.5%. The “Severity (0-4)” value (Botrytis cinerea; [18]) was 0.5, the “Severity (0-4)” value (Botrytis cinerea; Grape, 2 mg/L, evaluation day 0) was 0 and the “Severity (0-4)” value (Botrytis cinerea; Grape, 2 mg/L, evaluation day 1) was 0. For the same compound, the “Incidence (%)” value (Botrytis cinerea; [19]) was 0%, the “Severity (0-4)” value (Botrytis cinerea; [19]) was 0 and the “Incidence (%)” value (Botrytis cinerea; [20]) was 56.3%. The “Severity (0-4)” value (Botrytis cinerea; [20]) was 0.3, the “Severity (0-4)” value (Botrytis cinerea; Grape, 10 mg/L, evaluation day 0) was 0 and the “Severity (0-4)” value (Botrytis cinerea; Grape, 10 mg/L, evaluation day 1) was 0. For the same compound, the “Incidence (%)” value (Botrytis cinerea; [21]) was 3.1%, the “Severity (0-4)” value (Botrytis cinerea; [21]) was 0 and the “Incidence (%)” value (Botrytis cinerea; [22]) was 56.3%. For the same compound, the “Severity (0-4)” value (Botrytis cinerea; [22]) was 0.4, the “Incidence (%)” value (Botrytis cinerea; [23]) was 0% and the “Severity (0-4)” value (Botrytis cinerea; [23]) was 0. For the same compound, the “Incidence (%)” value (Botrytis cinerea; [24]) was 21.4%, the “Severity (0-4)” value (Botrytis cinerea; [24]) was 0.1 and the “Incidence (%)” value (Botrytis cinerea; [25]) was 21.4%. For the same compound, the “Severity (0-4)” value (Botrytis cinerea; [25]) was 0.1, the “Incidence (%)” value (Botrytis cinerea; [26]) was 28.6% and the “Severity (0-4)” value (Botrytis cinerea; [26]) was 0.5. The “Incidence (%)” value (Botrytis cinerea; [27]) was 14.3%, the “Severity (0-4)” value (Botrytis cinerea; [27]) was 0.1 and the “Incidence (%)” value (Botrytis cinerea; [28]) was 50%. For the same compound, the “Severity (0-4)” value (Botrytis cinerea; [28]) was 0.3, the “Incidence (%)” value (Botrytis cinerea; [29]) was 50% and the “Severity (0-4)” value (Botrytis cinerea; [29]) was 0.3. For the same compound, the “Incidence (%)” value (Botrytis cinerea; [30]) was 64.3%, the “Severity (0-4)” value (Botrytis cinerea; [30]) was 0.5 and the “Incidence (%)” value (Botrytis cinerea; [31]) was 7.1%. For the same compound, the “Severity (0-4)” value (Botrytis cinerea; [31]) was 0, the “Incidence (%)” value (Botrytis cinerea; [32]) was 35.7% and the “Severity (0-4)” value (Botrytis cinerea; [32]) was 0.2. For the same compound, the “Incidence (%)” value (Botrytis cinerea; [33]) was 42.9%, the “Severity (0-4)” value (Botrytis cinerea; [33]) was 0.5 and the “Incidence (%)” value (Botrytis cinerea; [34]) was 42.9%. For the same compound, the “Severity (0-4)” value (Botrytis cinerea; [34]) was 0.8, the “Color Score” value (Alternaria alternata [2]; 0.4 mg/L) was 1.75 and the Severity (Alternaria alternata [2]; 0.4 mg/L) was 0.00. For the same compound, the “Color Score” value (Alternaria alternata [2]; 2 mg/L) was 2.11 and the Severity (Alternaria alternata [2]; 2 mg/L) was 0.00.
